Assays:
DU4475 carcinoma cells = experiment: Cell growth assay (Example 5); assay type: cell-based, human; conditions: 3, 10, 30 μg/ml antibody, 50 ng/ml VEGF or 200 ng/ml PlGF, 48 hours
Protocol: DU4475 carcinoma cells were seeded at a density of 5×10^3/well into 96-well plates in serum-free conditions for 18 hours, and in some case followed by treatment with 100 nM of desferoxamine for additional 5 hours. Inhibitory effect of anti-VEGFR-I antibody on tumor cell growth was determined by incubation of cells with anti-VEGFR-I antibody clones 6F9, 13G12, 15F1 1, and 18F1 at doses of 3, 10, and 30 μg/ml in the presence of 50 ng/ml of VEGF or 200 ng/ml of PlGF for 48 hours. Viable cells were then counted in triplicate using a Coulter cytometer (Coulter Electronics Ltd. Luton, Beds, England). Each experiment was done in triplicate.

DU4475 xenograft = experiment: DU4475 breast tumor xenograft; assay type: in vivo, mouse
Protocol: Athymic nude mice (Charles River Laboratories, Wilmington, Mass.) were injected subcutaneously in the left flank area with 2×10^6 of DU4475 cells or 5×10^6 of MDA-MB-231 and MDA-MB-435 cells mixed in Matrigel (Collaborative Research Biochemicals. Bedford, Mass.). In the DU4475 and MDA-MB-231 models, tumors were allowed to reach approximately 200 mm^3 in size and then mice were randomized into groups of 12-16 animals per group. Animals received i.p. administration of the anti-VEGFR-I antibody clones 6F9, 15F11, or 18F1 at a dose of 0.5 mg (MDA-MB-231) or 1 mg (DU4475) three times each week. In the MDA-MB-435 model, the tumor cells were implanted subcutaneously into mammary fat pad area in the mouse. After tumors grew to reach approximately 200 mm^3 in size, mice were randomized into groups of 15 animals per group and intraperitoneally administered with 0.5 mg per dose of 18F1 antibody three times each week. Mice in control groups received an equal volume of saline solution. Treatment of animals was continued for the duration of the experiment. Tumors were measured twice each week with calipers. Tumor volumes were calculated using the formula [π/6 (w1×w2×w2)], where “w1” represents the largest tumor diameter and “w2” represents the smallest tumor diameter. Female athymic nu/nu mice, 6-8 weeks of age, were injected subcutaneously on the lateral dorsal surface with 0.4 mL volume of a suspension containing a human tumor cell line in media, diluted 1:1 with MATRIGEL™ (BD Biosciences). The cell lines used in xenograft models, with the cell doses indicated in parenthesis (10^6 cells/mouse), were: human colon carcinoma cell lines DLD-I (5), GEO (5) and HT-29 (5); human breast carcinoma cell lines DU4475 (2), MDA-MB-231 (5), MDA-MB-435 (5), and BT474 (5). When tumors reached approximately 200-300 mm^3, mice were randomized by tumor size and divided into treatment groups. Tumor growth was evaluated approximately twice weekly, with tumor volume calculated as π/6* (Length*Width^2), where Length=longest diameter and Width=diameter perpendicular to Length. Tumor dimensions were measured with calipers. T/C % was calculated as 100*(Final Treatment Tumor Volume/Initial Treatment Tumor Volume)/(Final Control Tumor Volume/Initial Control Tumor Volume). 18F1 was diluted in 0.9% USP saline (Braun) or phosphate buffered saline (PBS) and administered intraperitoneally in a volume of 0.5 mL per mouse. The effect of treatment on tumor growth was analyzed using repeated measures analysis of variance (RM ANOVA), p<0.05 was considered significant. 18F1 was used in combination with an antibody to mouse VEGFR-I, MF1. […] AU treatments were administered i.p. The effect of treatments on tumor growth were analyzed using repeated measures analysis of variance (RM ANOVA), p<0.05 was considered significant.

Akt = Akt phosphorylation Western blot, BT474 cells; assay type: cell-based, human; conditions: BT474 breast cancer cells, FIG. 15
Protocol: Autophosphorylation of the VEGFR-I induced by its ligands and resulting activation of a classical MAPK, extracellular signal-regulated protein kinases 1Z2 (ERK1Z2) and the PBK/Atk downstrean signaling pathways mediate cellular biological responses such as proliferation, motility, survival, and differentiation. The ability of an anti-VEGFR-1 antibody to inhibit phosphorylation of VEGFR-I and activation of ERK1 Z2 and the Akt kinases downstream signaling were determined by using the PAE-VEGFR-I transfectant and BT474 breast carcinoma cells.
For evaluation of MAPK and Akt phosphorylation, BT474 cells were seeded at a density of 5×10^5/well in 12 well plates in serum-free conditions for 18 hours. Cells were treated at 37° C. with anti-VEGFR-1 antibody clone 18F1 or isotype control for 1 hour and then incubated with 50 ng/ml of VEGF or 100 ng/ml of PlGF for 5-10 minutes. Cell lysis, protein isolation and electroblotting were performed. Membranes were incubated with antibodies against phosphorylated p44/p42 MAP kinases (Thr202/Tyr204, Santa Cruz Biotechnology, Santa Cruz, Calif.) or phosphorylated Akt (Ser473, Cell Signaling Technology, Beverly, Mass.), at a concentration of 1 μg/ml, followed by incubation with a secondary IgG-HRP (1:5000). […]

18F1: human anti-VEGFR-1 monoclonal antibody clone; VL SEQ ID NO: 16, VH SEQ ID NO: 20 [Clone 18F1]
VEGF and PlGF stimulated proliferation of DU4475 breast carcinoma cells (DU4475 carcinoma cells): inhibition | tumor growth of the DU4475 xenograft (DU4475 xenograft; 1 mg per dose three times each week i.p., p<0.05, FIGS. 19A-B): statistically significant suppression | tumor growth of the DU4475 xenograft (DU4475 xenograft; 0.5 or 1 mg per dose three times each week, ANOVA p<0.05, FIG. 20A): statistically significant suppression | growth of DU4475 xenograft tumors (DU4475 xenograft; Example 9, intraperitoneal, p<0.05, FIG. 25A): significantly (p<0.05) suppressed | tumor growth inhibition, DU4475 xenograft (DU4475 xenograft; Example 11, p<0.05, FIG. 28B): significant tumor growth inhibition | PlGF or VEGF-stimulated phosphorylation of Akt (Akt): significantly blocked
